Measured values reported in the NIST ThermoML archive (doi:10.1016/j.jct.2011.06.020).
Numbers after ± are expanded uncertainties.

Assay: refractive index (Na D-line) (dimensionless); xn = mol fraction of the nth substance listed
Conditions: 101 kPa, Liquid, Standard Abbe refractometry

CN1CCNCC1 [N-methylpiperazine] + O
refractive index
Conditions	293.15 K	298.15 K	303.15 K	308.15 K	313.15 K	323.15 K	328.15 K	333.15 K
x1 = 0.0521	1.374 ± 0.001	1.373 ± 0.001	1.373 ± 0.001	1.372 ± 0.001	1.371 ± 0.001	1.369 ± 0.001	1.368 ± 0.001	1.366 ± 0.001
x1 = 0.0725	1.389 ± 0.001	1.388 ± 0.001	1.387 ± 0.001	1.386 ± 0.001	1.384 ± 0.001	1.382 ± 0.001	1.381 ± 0.001	1.379 ± 0.001
x1 = 0.1039	1.406 ± 0.001	1.405 ± 0.001	1.403 ± 0.001	1.402 ± 0.001	1.401 ± 0.001	1.397 ± 0.001	1.396 ± 0.001	1.396 ± 0.001
x1 = 0.2091	1.44 ± 0.001	1.438 ± 0.001	1.436 ± 0.001	1.434 ± 0.001	1.432 ± 0.001	1.428 ± 0.001	1.427 ± 0.001	1.425 ± 0.001
x1 = 0.3101	1.453 ± 0.001	1.451 ± 0.001	1.449 ± 0.001	1.447 ± 0.001	1.445 ± 0.001	1.441 ± 0.001	1.439 ± 0.001	1.437 ± 0.001
x1 = 0.4096	1.459 ± 0.001	1.457 ± 0.001	1.455 ± 0.001	1.453 ± 0.001	1.451 ± 0.001	1.446 ± 0.001	1.444 ± 0.001	1.442 ± 0.001
x1 = 0.5109	1.462 ± 0.001	1.46 ± 0.001	1.458 ± 0.001	1.456 ± 0.001	1.454 ± 0.001	1.449 ± 0.001	1.447 ± 0.001	1.445 ± 0.001
x1 = 0.608	1.464 ± 0.001	1.462 ± 0.001	1.46 ± 0.001	1.457 ± 0.001	1.455 ± 0.001	1.451 ± 0.001	1.448 ± 0.001	1.446 ± 0.001
x1 = 0.7065	1.465 ± 0.001	1.463 ± 0.001	1.461 ± 0.001	1.458 ± 0.001	1.456 ± 0.001	1.451 ± 0.001	1.449 ± 0.001	1.447 ± 0.001
x1 = 0.8069	1.466 ± 0.001	1.463 ± 0.001	1.461 ± 0.001	1.459 ± 0.001	1.456 ± 0.001	1.452 ± 0.001	1.449 ± 0.001	1.447 ± 0.001
x1 = 0.8819	1.466 ± 0.001	1.464 ± 0.001	1.461 ± 0.001	1.459 ± 0.001	1.457 ± 0.001	1.452 ± 0.001	1.449 ± 0.001	1.447 ± 0.001
x1 = 1	1.466 ± 0.001	1.464 ± 0.001	1.461 ± 0.001	1.459 ± 0.001	1.457 ± 0.001	1.452 ± 0.001	1.449 ± 0.001	1.447 ± 0.001
